As a reminder, the IC50 is the point on the concentration scale where inhibition reaches its midpoint.

Counter-ions that a name gives are not always drawn.

This passage reports IC50 results from patent US20250091989A1, “SMALL MOLECULE PROTEIN SYNTHESIS MODULATORS” (Interdict Bio, Inc., priority 2023, published 2025).

Common to all, as to format: biochemical
Details in all cases: HeLa S3 lysate, sfGFP/mCherry ratio, 2 hrs at 30° C.

The test system of one experiment is ALK. As to the kind of experiment: In vitro transcription-translation (IVTT) reporter assay, ALK test sequence. In a few lines:
(§1)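 Coupled transcription-translation in HeLa S3 lysate with reporter plasmids encoding mCherry-P2A-3×FLAG-TEST-sfGFP behind an EMCV IRES. Compounds were half-log titrated (30 μM-0.1 μM in DMSO dilution plate) into master mix, then DNA was added. Reactions ran 2 hrs at 30° C, were PBS-quenched and read for fluorescence.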

The subject of the next experiment is KRAS G12D. As to the kind of experiment: In vitro transcription-translation (IVTT) reporter assay, KRAS G12D test sequence. From the text:
All reporter constructs have been cloned into the pT7CFE1-CHis plasmid (ThermoFisher #88860) using Gibson assembly procedures (NEB #E2611L). The parental pT7CFE1-CHis plasmid contains an EMCV IRES at the 5′UTR for translation initiation, a multiple-cloning site (MCS) for gene insertion, an optional C-terminal His-epitope tag, and polyA sequence in the 3′UTR to regulate mRNA stability. All reporters are designed to be inserted at the MCS to include a red fluorescent protein (mCherry), P2A self-cleaving peptide which releases the preceding mCherry protein product, and a fusion open reading frame containing a 3×FLAG epitope, a peptide sequence of interest (TEST), and green fluorescent protein (sfGFP).
Construct Plasmid Preparation: All plasmids are isolated from MACH1 cells (ThermoFisher) grown overnight in ampicillin-containing luria broth, and purified using ZymoPure Express Plasmid Midiprep Kit (Zymo Research). Constructs are sequenced verified and diluted to a working concentration of 110 ng/μL.
HeLa S3 Lysate Preparation: HeLa S3 cell pellets are acquired from Ipracell/Ipratech (Belgium) and shipped as 4 mL frozen cell pellets on dry ice for storage at −80° C. until use. The procedure for lysate preparation is as follows. Prepare 1× Lysis Buffer, cold and stored on ice:
Each preparation takes 8 cell pellets (4 ml packed volume each, approximately 1.0×10^9 cells per pellet). Thaw cell pellets from −80° C. on ice for 90 mins. Lay pellets horizontally on top of the ice and rotate every 30 mins to ensure even thawing. Once thawed, add 4 mL of cold lysis buffer to each pellet, and using a serological pipet, gently pipet up and down to break up clumps. Incubate resuspended cells in ice for an additional 30 mins (plunged into ice). During 30 min incubation, rinse and RNase-zap (Ambion) glass dounces (use loose pestle “A”), gently dry and place on ice until needed. Prepare RNase-free Eppendorf tubes for spinning and for batch storage. Add batch labels to 1.5-1.7 mL RNase-free microcentrifuge tubes (labeling scheme below). Each batch will have an extra 1.5-1.7 mL RNase-free microcentrifuge tube for 40 μL of lysate, label the top of this tube (labeling scheme below). After 30 min incubation, transfer all 8 mL of cell pellet to dounce. Cell lysis is complete after douncing 100 times. Aliquot cell lysis into 1.5-1.7 mL temporary-microcentrifuge tubes. Place tubes in centrifuge with “fins” out, and spin at 1,200 xg for 5 mins. After the first spin use a 1 mL pipet to resuspend each tube and repeat spin. This acts as an additional lysis step, is more vigorous and increases lysate yield. During second spin get liquid N2 and a fresh conical tube on ice.
After spin is complete, transfer supernatant (lysate) from microcentrifuge tubes into the 50 mL conical tube and keep on ice. Repeat steps 10-14 for all other cell pellets until completed. Once all cell lysate has been transferred to the 50 mL conical tube pipet to mix so the solution is homogenous. Transfer 1 mL of lysate into batch-labeled microcentrifuge tubes and flash freeze in liquid nitrogen. Be sure to pipet up and down to mix throughout transfer step. Place all tubes in the […] for long-term storage.
In vitro transcription-translation assay setup: Each assay includes a master mix containing lysate and shared components, a 96-well plate containing compound titrations for testing, a 96-well DNA plate with reporter constructs to be tested, 96-well skirted PCR plates, and 96-well flat-bottom, black, fluorescent assay plates. […]

Another experiment relates to MYC. As to the kind of experiment: In vitro transcription-translation (IVTT) reporter assay, MYC test sequence. The gist of the method:
as §1

Turning to `COc1ccc(C[C@H]2NC[C@H](O)[C@H]2OC(=O)C2CC(=O)N2)cc1` (stereo partly drawn) [V186864, (2R,3S,4S)-4-hydroxy-2-[(4-methoxyphenyl)methyl]pyrrolidin-3-yl 4-oxoazetidine-2-carboxylate; trifluoroacetic acid], the IC50 in the experiment with ALK was less than 10 µM; with KRAS G12D, more than 30 µM; with MYC it was 10 to 20 µM.
As for `COc1ccc(C[C@H]2NC[C@H](O)[C@H]2OC(=O)C2CCO2)cc1` (stereo partly drawn) [V186865, (2R,3S,4S)-4-hydroxy-2-(4-methoxybenzyl)pyrrolidin-3-yl oxetane-2-carboxylate FA salt], the IC50 is less than 10 µM with ALK, more than 30 µM in the experiment on KRAS G12D and less than 10 µM in the experiment with MYC.
For the compound `COc1ccc(C[C@H]2NC[C@H](O)[C@H]2OC(=O)C2CN(C(C)=O)C2)cc1` [V186866, (2R,3S,4S)-4-hydroxy-2-[(4-methoxyphenyl)methyl]pyrrolidin-3-yl 1-acetylazetidine-3-carboxylate], the IC50 is less than 10 µM in the experiment on ALK, more than 30 µM in the experiment on KRAS G12D and 10 to 20 µM with MYC.
The corresponding values for `COc1ccc(C[C@H]2NC[C@H](O)[C@H]2OC(=O)CCN2C(=O)CNC2=O)cc1` [V186870, (2R,3S,4S)-4-hydroxy-2-[(4-methoxyphenyl)methyl]pyrrolidin-3-yl 3-(2,5-dioxoimidazolidin-1-yl)propanoate] are less than 10 µM, 10 to 20 µM and less than 10 µM.
With `COc1ccc(C[C@H]2NC[C@H](O)[C@H]2OC(=O)CCC2CNC2)cc1` [V186873, (2R,3S,4S)-4-hydroxy-2-[(4-methoxyphenyl)methyl]pyrrolidin-3-yl 3-(azetidin-3-yl)propanoate], the IC50 in the experiment on ALK, with KRAS G12D and in the experiment with MYC was less than 10 µM throughout.
Regarding `C#Cc1ccc(C[C@H]2NC[C@H](O)[C@H]2OC(C)=O)cc1` [V186940], the IC50 with ALK, with KRAS G12D and in the experiment on MYC was less than 10 µM each time.
Take `COc1ccc(C[C@H]2NC[C@H](O)[C@H]2OC(=O)C2CN(C(=O)C3CCOCC3)C2)cc1` [V186989, (2R,3S,4S)-4-hydroxy-2-[(4-methoxyphenyl)methyl]pyrrolidin-3-yl 1-(oxane-4-carbonyl)azetidine-3-carboxylate; trifluoroacetic acid]: the IC50 with ALK, with KRAS G12D and in the experiment on MYC was more than 30 µM throughout.
Take `COc1ccc(C[C@H]2NC[C@H](O)[C@H]2OC(=O)CCC2CCOCC2)cc1` [V186990, (2R,3S,4S)-4-hydroxy-2-[(4-methoxyphenyl)methyl]pyrrolidin-3-yl 3-(oxan-4-yl)propanoate; trifluoroacetic acid]: the IC50 in the experiment with ALK, in the experiment with KRAS G12D and in the experiment with MYC was less than 10 µM in each case.
For `CC(=O)O[C@@H]1[C@@H](O)CN[C@@H]1Cc1ccc(C#N)cc1` [V187006, (2R,3S,4S)-2-[(4-cyanophenyl)methyl]-4-hydroxypyrrolidin-3-yl acetate; trifluoroacetic acid], the half-inhibitory concentration (IC50) in the experiment on ALK, with KRAS G12D and with MYC was less than 10 µM each time.
As for `CC(=O)O[C@@H]1[C@@H](O)CN[C@@H]1Cc1ccc(Cl)cc1` [V187009, (2R,3S,4S)-2-[(4-chlorophenyl)methyl]-4-hydroxypyrrolidin-3-yl acetate; trifluoroacetic acid], the IC50 with ALK, in the experiment on KRAS G12D and in the experiment with MYC was less than 10 µM each time.
For the compound `CC(=O)O[C@@H]1[C@@H](O)CN[C@@H]1Cc1ccc(Br)cc1` [V187010, (2R,3S,4S)-2-[(4-bromophenyl)methyl]-4-hydroxypyrrolidin-3-yl acetate; trifluoroacetic acid], the concentration for half-maximal inhibition (IC50) with ALK, with KRAS G12D and with MYC was less than 10 µM in each case.
`COc1ccc(C[C@H]2NC[C@H](O)[C@H]2OC(=O)C23CC(F)(C2)C3)cc1` [V187044, (2R,3S,4S)-4-hydroxy-2-[(4-methoxyphenyl)methyl]pyrrolidin-3-yl 3-fluorobicyclo[1.1.1]pentane-1-carboxylate; trifluoroacetic acid]: the values for the IC50 in the experiment on ALK, in the experiment with KRAS G12D and with MYC were less than 10 µM, more than 30 µM and 10 to 20 µM, respectively.
Take `COc1ccc(C[C@H]2NC[C@H](O)[C@H]2OC(=O)Cc2nnc(N)s2)cc1` [V187048, (2R,3S,4S)-4-hydroxy-2-[(4-methoxyphenyl)methyl]pyrrolidin-3-yl 2-(5-amino-1,3,4-thiadiazol-2-yl)acetate]: the IC50 with ALK, in the experiment with KRAS G12D and in the experiment with MYC was less than 10 µM throughout.
`COc1ccc(C[C@H]2NC[C@H](O)[C@H]2OC(=O)Cc2cc3ccccc3s2)cc1` [V187053, (2R,3S,4S)-4-hydroxy-2-[(4-methoxyphenyl)methyl]pyrrolidin-3-yl 2-(1-benzothiophen-2-yl)acetate]: the IC50 in the experiment on ALK, with KRAS G12D and with MYC was less than 10 µM throughout.
As for `COc1ccc(C[C@H]2NC[C@H](O)[C@H]2OC(=O)Cc2cccnc2)cc1` [V187057, (2R,3S,4S)-4-hydroxy-2-[(4-methoxyphenyl)methyl]pyrrolidin-3-yl 2-(pyridin-3-yl)acetate], the 50% inhibitory concentration (IC50) in the experiment with ALK, in the experiment with KRAS G12D and with MYC was less than 10 µM each time.
With `COc1ccc(C[C@H]2NC[C@H](O)[C@H]2OC(=O)CCC2CC2)cc1` [V187063, (2R,3S,4S)-4-hydroxy-2-[(4-methoxyphenyl)methyl]pyrrolidin-3-yl 3-cyclopropylpropanoate; trifluoroacetic acid], the IC50 in the experiment on ALK, in the experiment on KRAS G12D and in the experiment on MYC was less than 10 µM throughout.
`COc1ccc(C[C@H]2NC[C@H](O)[C@H]2OC(=O)C2CC3(C2)CC(N(C)C)C3)cc1` (stereo partly drawn) [V187066, (2R,3S,4S)-4-hydroxy-2-[(4-methoxyphenyl)methyl]pyrrolidin-3-yl 6-(dimethylamino)spiro[3.3]heptane-2-carboxylate]: the IC50 in the experiment with ALK is 10 to 20 µM; in the experiment with KRAS G12D it was more than 30 µM; in the experiment on MYC it was more than 30 µM.
As for `COc1ccc(C[C@H]2NC[C@H](O)[C@H]2OC(=O)COCc2ccc3nsnc3c2)cc1` [V187072, (2R,3S,4S)-4-hydroxy-2-[(4-methoxyphenyl)methyl]pyrrolidin-3-yl 2-(2,1,3-benzothiadiazol-5-ylmethoxy)acetate; trifluoroacetic acid], the half-maximal inhibitory concentration (IC50) with ALK, in the experiment with KRAS G12D and in the experiment on MYC was less than 10 µM in each case.
Turning to `COc1ccc(C[C@H]2NC[C@H](O)[C@H]2OC(=O)Cc2ccc3ccccc3c2)cc1` [V187123, (2R,3S,4S)-4-hydroxy-2-[(4-methoxyphenyl)methyl]pyrrolidin-3-yl 2-(naphthalen-2-yl)acetate; trifluoroacetic acid], the half-maximal inhibitory concentration (IC50) in the experiment with ALK was less than 10 µM; in the experiment with KRAS G12D, more than 30 µM; in the experiment with MYC, 10 to 20 µM.
For `COc1ccc(C[C@H]2NC[C@H](O)[C@H]2OC(=O)Cc2ccc(OC(F)(F)F)cc2)cc1` [V187159, (2R,3S,4S)-4-hydroxy-2-[(4-methoxyphenyl)methyl]pyrrolidin-3-yl 2-[4-(trifluoromethoxy)phenyl]acetate], the values for the half-maximal inhibitory concentration (IC50) in the experiment on ALK, with KRAS G12D and in the experiment with MYC were 10 to 20 µM, more than 30 µM and 10 to 20 µM, respectively.
`COc1ccc(C[C@H]2NC[C@H](O)[C@H]2OC(=O)CCC(F)(F)F)cc1` [V187163, (2R,3S,4S)-4-hydroxy-2-[(4-methoxyphenyl)methyl]pyrrolidin-3-yl 4,4,4-trifluorobutanoate; trifluoroacetic acid]: the IC50 with ALK, in the experiment on KRAS G12D and in the experiment with MYC was less than 10 µM in each case.
